Source: patent US5602161A, “Tetrazolylphenyl pivalate derivatives and medicinal composition containing the same as effective component” (Wakamoto Pharmaceutical Co., Ltd., priority 1994, dated 1997)
Where two headings read alike, the source gives them in different places.

Tests used:
[1] = test system: endotoxin induced acute lung injury in mice; assay: Inhibitory effect on endotoxin induced acute lung injury in mice; format: in vivo, ICR mice; conditions: Mus musculus, oral 10 mg/Kg at 1.5 hr before and 4.5~5.0 hr after LPS (25 μg/site), BAL fluid at 19~20 hrs
Procedure: ICR mice (25~30 g, .male., n=7) were used.
The test compounds were suspended at 0.1% in 0.5% sodium carboxymethylcellulose-saline.
Oral administration of the test compounds were given at 10 mg/Kg at 1.5 hr before an intratracheal instillation of LPS (E.coli, 055:B5, Difico, 25 μg/site). After sodium pentobarbital anesthetized, LPS dissolved in sterile saline was instilled intratracheally via a ventral neck in the throat incisionusing with a 250 μl syringe attached to a 27-gauge needle.
The throat incisions were sutured with surgical threads, and PI-compound was administered with the same mannner as described above 4.5~5.0 hr after LPS instillation.
Up 19~20 hrs after LPS instillation, animals were euthanized by an i.p. pentobarbital overdose, each animal trachea was reexposed and the ventral neck region was small incised.
A 10 cm length of small-diameter (O.D=0.5 mm) polyethylene catheter inserted and held in place using surgical suture. The lung was then lavaged with a single 500 μl sterile saline using a 1 ml syringe by gently expanding the lung and then withdrawing the saline. The same operation was repeated 6 times, yielding a final volume of 3 ml bronchoalveolar lavage (BAL) fluid from each animal.
Evaluation of testing compounds were expressed as inhibitory percent of hemorrhage and leukocyte infiltration in the lung of each animals.
Estimation for hemorrhage:
Red blood cells were bursted with adding 50 μl KCN solution (0.33 %) per 1 ml of BAL fluid, and then the amount of blood in each BAL fluid samples were calculated from a hemoglobin standard curve.
Estimation of leukocyte infiltrations:
(§1) BAL fluid was diluted to 100 fold with a balanced electrolyte solution and KCN solution (0.33%) was added to the diluted BAL fluid for lysis of contaminating red blood cells.
Leukocyte number was determined from the average of the three times count using a particle counter.
The inhibitory effect of testing compounds were calculated from thefollowing equation:
Inhibitory percent=[1-(The average value of the test compound group)/(The
average value of the control group)]×100
The control animals were dosed orally with the same amount of the vehicle before and after intratracheal instillation of LPS and were operated with the same manner as the animals tested with the test compounds.

[2] = test system: pancreatic elastase induced acute lung injury in mice; assay: Inhibitory effect on pancreatic elastase induced acute lung injury in mice; format: in vivo, ICR mice; conditions: oral 10 mg/Kg at 3.5 hr before and 4.5~5.0 hr after P. elastase (5 μg/site); BAL fluid at 20 hrs
Procedure: ICR mice (25~30 g, .male., n=7~8) were used.
The compound to be evaluated was suspended in 0.5% sodium carboxymethylcellulose-saline.
Oral administration of the test compound was given at 10 mg/Kg at 3. 5 hr before an intratacheal instillation of P. elastase (5 μg/site). After sodium pentobarbital anesthetized, sterile saline containing P. elastase was instilled intratracheally via ventral neck in the throat incisions using a 250 μl syringe attached to a 27-gauge needle.
The throat incisions were closed with surgical suture, and test compounds were administered with the same manner as described above at 4.5~5.0hr after an intratracheal instillation of P. elastase.
At 20 hrs after an intratracheal instillation of P. elastase, animalz were euthanized by an i.p. pentobarbital overdose, each animal trachea was reexposed and the ventral nech region was small incised. A 10 cm length of small-diameter (O.D=0.5 mm) polyethylene catheter inserted and held in place using surgical suture. The lung were then lavaged with 500 μl sterile saline using a 1 ml syringe by gently expanding the lung and then withdrawing the saline.
The same operation was repeated 6 times, yielding in a final volume of 3 ml bronchoalveolar lavage (BAL) fluid from each animal.
The test compounds were evaluated as a inhabitory percent of hemorrhage and leukocyte number in the BAL fluid from each animal.
Operation for hemorrhage and leukocyte number assay;
Red blood cells were bursted with adding 50 μl KCN solution (0.33%) per 1 ml BAL fluid. The amount of blood in each BAL fluid sample was calculated from a hemoglobin standard curve.
as §1
Leukocyte number was determined by the average of the three times count using a particle counter.
Inhibitory effects of the test compounds on hemorrhage and leukocyte infiltration were calculated from the following equation: Inhibitory percent=[1-(The average value of test compound
group)/(The average value of the control group)]×100
The control animals were dosed orally with the same amount of vehicle before and after intratracheal instillation of P. elastase, and it were treated with the same manner as the test compound group.

[3] = Cytotoxicity test (MTT, three days); format: cell-based; conditions: mouse, l1210 cells, read-out: Survival rate; for viability at 72 h, 1 µM: final concentration 1 μM; for viability at 72 h, 5 µM: final concentration 5 μM; for viability at 72 h, 10 µM: final concentration 10 μM
Procedure: L1210 (lymphocytic leukemia, mouse) cells in a logarithmic growth phase were collected and washed twice with HBSS (Hanks' balanced salt solution). The L1210 cells were resuspended at 5.0×10^4 cells/ml in RPMI 1640 medium containing 10% heat-inactivated fetal bovine serum. The cell suspension was dispensed in 100 μl aliquots into 96 well multi-plate. Each of compounds to be tested was dissolved in dimethylsulfoxide at a concentration of 10 mM. The solutions were stepwise diluted with RPMI 1640 solution containing 10% heat-inactivated fetal bovine serum. Each of the diluted samples was dispensed in an amount of 10 μl well in the 96 well multi-plate containing L1210 cells and incubated for three days at 37° C. in humidified 5% CO2 -air mixture. To each of the wells, 10 μl of MTT (3-(4,5-dimethylthiazol-2-yl)-2,5-diphenyltetrazolium bromide)(5 mg/ml in phosphate buffer free of Ca^2+ and Mg^2+) was added. Cultivation was continued for additional five hours at 37° C. in humidified 5% CO2 -air mixture. To each of the wells, 100 μl of 20% SDS (sodium dodecyl sulfate) in 0.01N HCl was added to solubilize the MTT formazan.
Absorbance was measured at 630 nm as a reference wavelength and 570 nm as a measuring wavelength using Corona Electric MTP22 Microplate Photometer. The measurement was conducted three times for each of the samples to obtain an average value and a standard deviation. Survival rate was calculated by the following equation:
Survival rate (5)=[(absorbance of test sample)/(absobance of […]

human sputum elastase = target: T1, human sputum elastase (Homo sapiens, UniProt P08246); assay: Inhibitory effect on elastase (human sputum), spectrophotometric assay with MeOSuc-Ala-Ala-Pro-Val-pNA; format: biochemical
T1 sequence (P08246 30-247 limits assumed): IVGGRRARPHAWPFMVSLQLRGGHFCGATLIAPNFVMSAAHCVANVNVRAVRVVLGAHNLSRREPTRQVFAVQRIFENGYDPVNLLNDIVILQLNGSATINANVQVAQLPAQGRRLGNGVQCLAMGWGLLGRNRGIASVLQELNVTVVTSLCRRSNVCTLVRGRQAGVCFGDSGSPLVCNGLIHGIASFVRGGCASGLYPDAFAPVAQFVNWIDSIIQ
Procedure: (§2) Namely, it is a spectrophotometric assay using the synthesized substrate, methoxysuccinyl-alanyl-alanyl- prolyl-valyl-p-nitroanilide(MeOSuc-Ala-Ala-Pro-Val-pNA, Cambridge research biochemical Co.) which has high specificity on neutrophil elastase.
(§3) 20 μl of a test compound of various concentrations and 20 μl of enzyme solution (13 unit/ml) were added to 400 μl of 0.1M sodium phosphate buffer (pH 8.0). The mixture was incubated at 37° C. for 5 min, and then 20 μl of the substrate was added to the mixture in a final volume of 460 μl. The reaction was conducted by incubating thus obtained mixture at 37° C. for 20 min. The reaction was stopped by the addition of 300 μl of 20% acetic acid into the reaction mixture, and then p-nitroanilide released was measured by the spectrophotometrically at 405 nm.
(§4) Inhibition percents of the test compounds were calculated by the following equation:
(§5) Inhibition %=[1-(OD 405 nm value of the testing sample-background)/(OD 405 nm value of the control-background)]×100

[4] = target: T2, human neutrophil elastase (Homo sapiens, UniProt P08246); assay: Inhibitory effect on elastase (human neutrophil), spectrophotometric assay with MeOSuc-Ala-Ala-Pro-Val-pNA; format: biochemical
T2 construct: using elastase from human neutrophil or human sputum; from tissue; host or cells: human neutrophil
T2 sequence (P08246 30-247 limits assumed): T1 sequence (P08246 30-247 limits assumed)
Procedure: as §2, §3, §4, §5

[5] = test system: endotoxin-induced lung disorders; conditions: The Course of Medical Science, 1992, 160, No. 4, pp. 257-258; cited from earlier work
[6] = Leukocyte, read-out: Inhibitory percent of leukocyte infiltration
[7] = read-out: Inhibitory percent of hemorrhage
[8] = S: human sputum elastase, pH 8.0, 37° C., read-out: IC50
[9] = N: human neutrophil elastase, pH 8.0, 37° C., read-out: IC50

Row | SMILES | IC50 (human sputum elastase; [8]) | IC50 [4, 9] | inhibition in vivo at 10 mg/kg [1, 6] | inhibition in vivo at 10 mg/kg [1, 7] | Inhibitory percent of hemorrhage [2] | Inhibitory percent of leukocyte infiltration [2] | viability at 72 h, 1 µM [3] | viability at 72 h, 5 µM [3] | viability at 72 h, 10 µM [3] | IC50 [4] | IC50 (human sputum elastase) | effect of inhibiting endotoxin-induced lung disorders (in words) [5]
1 | CN(C)c1ccc(Cn2nnc(-c3ccc(OC(=O)C(C)(C)C)c(N(C)C)c3)n2)cc1 [Example 7, 2-Dimethylamino-4-[2-[4-(dimethylamino)benzyl]tetrazol-5-yl]phenyl pivalate] | 540 nM |  | 82.1% | 88.5% | 23.6% | 26.1% | 97% | 96.1% | 88.3% |  |  | 
2 | CN(C)c1ccc(Cn2nnc(-c3ccc(OC(=O)C(C)(C)C)cc3)n2)cc1 [Example 16, 4-[2-[4-(Dimethylamino)benzyl]tetrazol-5-yl]phenyl pivalate] | 150 nM | 30 nM | 88.2% | 84.9% | 44.0% | 49.0% | 94.2% | 103% | 104% |  |  | 
3 | CC(C)c1ccc(Cn2nnc(-c3ccc(OC(=O)C(C)(C)C)cc3)n2)cc1 [Example 19, 4-[2-(4-Isopropylbenzyl)tetrazol-5-yl]phenyl pivalate] | 510 nM | 42 nM | 65.6% | 33.8% | 76.8% | 14.1% |  |  |  |  |  | 
4 | CC(C)(C)C(=O)Oc1ccc(-c2nnn(Cc3ccncc3)n2)cc1 [Example 35, 4-[2-(4-Pyridylmethyl)tetrazol-5-yl]phenyl pivalate] | 14 nM |  |  |  | 71.5% | 45.1% | 95.2% | 110% | 99.1% |  |  | 
5 | COc1ccc(COCCCCn2nnc(-c3ccc(OC(=O)C(C)(C)C)cc3)n2)cc1 [Example 42, 4-[2-[4-(4-Methoxybenzyloxy)butyl]tetrazol-5-yl]phenyl pivalate] | 22 nM | 19 nM | 64.1% | 39.4% |  |  |  |  |  |  |  | 
6 | CC(C)(C)C(=O)Oc1ccc(-c2nnn(CCOC(=O)c3ccc(NC(=N)N)cc3)n2)cc1 [Example 94, 4-[2-[2-(4-Guanidinobenzoyloxy)ethyl]tetrazol-5-yl]phenyl pivalate Acetate] |  |  | 51.8% | 36.6% |  |  |  |  |  | 96 nM |  | 
7 | CC(=O)O.CC(C)(C)C(=O)Oc1ccc(-c2nnn(CCNC(=O)c3ccc(NC(=N)N)cc3)n2)cc1 [Example 95, 4-[2-[2-(4-Guanidinobenzoylamino)ethyl]tetrazol-5-yl]phenyl pivalate Acetate] |  |  | 79.6% | 62.3% | 15.2% | 30.2% | 103% | 109% | 107% |  | 250 nM | 
8 | CC(C)(C)C(=O)Oc1ccc(S(=O)(=O)Nc2ccccc2C(=O)NCC(=O)O)cc1 [ONO-5046] |  |  |  |  |  |  |  |  |  |  |  | shows an effect of inhibiting endotoxin-induced lung disorders

Further lines, with some results ahead:

Row | IC50 (human sputum elastase; [8]) | IC50 [4, 9] | SMILES | inhibition in vivo at 10 mg/kg [1, 6] | inhibition in vivo at 10 mg/kg [1, 7] | Inhibitory percent of hemorrhage [2] | Inhibitory percent of leukocyte infiltration [2] | viability at 72 h, 1 µM [3] | viability at 72 h, 5 µM [3] | viability at 72 h, 10 µM [3] | IC50 [4] | IC50 (human sputum elastase) | effect of inhibiting endotoxin-induced lung disorders (in words) [5]
9 | 140 nM |  | CN(C)Cc1ccc(Cn2nnc(-c3ccc(OC(=O)C(C)(C)C)cc3)n2)cc1 [Example 47, 4-[2-[4-(Dimethylaminomethyl)benzyl]tetrazol-5-yl]phenyl pivalate] | 61.5% | 48.6% |  |  |  |  |  |  |  | 
10 | 38 nM |  | CC(C)(C)C(=O)Oc1ccc(-c2nnn(C(C(=O)OCc3ccccc3)c3ccccc3)n2)cc1 (stereo not drawn) [Example 51, 4-[2-[α-(Benzyloxycarbonyl)benzyl)tetrazol-5-yl]phenyl pivalate] | 20.5% | 57% |  |  |  |  |  |  |  | 
11 | 40 nM |  | CC(C)(C)C(=O)Oc1ccc(-c2nnn(Cc3ccc(C(=O)N4CCC[C@H]4C(=O)O)cc3)n2)cc1 [Example 59, N-[4-[5-(4-pivaloyloxyphenyl)tetrazol-2-ylmethyl]benzoyl]-L-Proline] | 58.8% | 81.5% |  |  |  |  |  |  |  | 
12 |  | 300 nM | CC(C)(C)C(=O)Oc1ccc(-c2nnn(Cc3ccccc3C(=O)NCC(=O)O)n2)cc1 [Example 63, N-[2-[5-(4-Pivaloyloxyphenyl)tetrazol-2-ylmethyl]benzoyl]glycine] |  |  |  |  | 105% | 103% | 100% |  |  | 
